pIC50: −log10 of the molar value. Counter-ions that a name gives are not always drawn.

This test deals with P. falciparum-infected RBCs. Put plainly: Glycolysis IC50 / lactate excretion assay in P. falciparum-infected RBCs. The format is cell-based. Conditions: Plasmodium falciparum. The procedure:
The cultures were harvested and DNA quantitated using the standard Sybr Green I fluorescence assay. […] The culture medium was harvested and extracellular lactic acid was quantified by LC-MS.
P. falciparum (HB-3 strain) cultures were maintained in standard culture conditions. […] Parasites were grown in O+ donor blood, 2% hematocrit.
Parasite cultures were seeded in 96-well plates (1% hematocrit, 1-2% starting parasitemia, 100 μL total volume) with varying concentrations of the test compounds in a final concentration of 0.1% DMSO. Plates were cultured for 48 hours before harvesting the culture medium for LC-MS analysis. At harvest, thin smears were taken and examined microscopically to observe any alterations in parasite morphology.
Culture medium samples were diluted in 9 volumes of methanol containing U-^13C-glucose and 1-^13C-lactate (final concentration 0.25 mM each). The samples were clarified by centrifugation at 13,000 RCF for 10 minutes. […] Mobile phase A was acetonitrile, and mobile phase B was 20 mM ammonium acetate (pH 9.4).
The sample was analyzed on an Exactive mass spectrometer (Thermo Scientific) to determine the chromatographic peak areas the analytes and internal standards. Glucose and lactate were quantified by taking the ratio of the unlabeled peak area to the area of the isotope-labeled standard.
As for `CC(C)NC(=O)COc1cccc(-c2nc3c(c(Nc4ccc(-c5cn[nH]c5)cc4)n2)CN(C(=O)C(C)C)CC3)c1` [Example 1, 2-(3-(4-((4-(1H-pyrazol-4-yl)phenyl)amino)-6-isobutyryl-5,6,7,8-tetrahydropyrido[4,3-d]pyrimidin-2-yl)phenoxy)-N-isopropylacetamide], the pIC50 was 7.00 to 8.00.

`CC(C)NC(=O)COc1cccc(-c2nc3c(c(Nc4ccc(-c5cn[nH]c5)cc4)n2)COC3)c1` [Example 2, 2-(3-(4-((4-(1H-pyrazol-4-yl)phenyl)amino)-5,7-dihydrofuro[3,4-d]pyrimidin-2-yl)phenoxy)-N-isopropylacetamide] gave a pIC50 of 6.60 to 7.00.

Turning to `O=C(COc1cccc(-c2nc(Nc3ccc(-c4cn[nH]c4)cc3)c3sccc3n2)c1)NC1CC1` [Example 5], the pIC50 is 6.30 to 6.60.

As to `O=C(COc1cccc(-c2nc(Nc3ccc(-c4cn[nH]c4)cc3)c3occc3n2)c1)NC1CCCC1` [Example 9], the pIC50 is 6.30 to 6.60.

As to `Cn1cnc2c(Nc3ccc(-c4cn[nH]c4)cc3)nc(-c3cccc(OCC(=O)NC4CCC4)c3)nc21` [Example 11], the pIC50 is 6.60 to 7.00.

`O=C(COc1cccc(-c2nc3c(c(Nc4ccc(-c5cn[nH]c5)cc4)n2)COC3)c1)NC1CCC1` [Example 12] had a pIC50 of 6.60 to 7.00.

As to `O=C(COc1cccc(-c2nc3c(c(Nc4ccc(-c5cn[nH]c5)cc4)n2)COC3)c1)NC1CCCC1` [Example 13], the pIC50 is 6.60 to 7.00.

`CC(C)CNC(=O)COc1cccc(-c2nc(Nc3ccc(-c4cn[nH]c4)cc3)c3ncccc3n2)c1` [Example 14, 2-(3-(4-((4-(1H-pyrazol-4-yl)phenyl)amino)pyrido[3,2-d]pyrimidin-2-yl)phenoxy)-N-isobutylacetamide] had a pIC50 of 6.30 to 6.60.

`Cn1ncc2c(Nc3ccc(-c4cn[nH]c4)cc3)nc(-c3cccc(OCC(=O)NC4CCC4)c3)nc21` [Example 15, 2-(3-(4-((4-(1H-pyrazol-4-yl)phenyl)amino)-1-methyl-1H-pyrazolo[3,4-d]pyrimidin-6-yl)phenoxy)-N-cyclobutylacetamide] had a pIC50 of 6.60 to 7.00.

Take `CC(C)NC(=O)COc1cccc(-c2nc(Nc3ccc(-c4cn[nH]c4)cc3)c3cnn(C)c3n2)c1` [Example 16, 2-(3-(4-((4-(1H-pyrazol-4-yl)phenyl)amino)-1-methyl-1H-pyrazolo[3,4-d]pyrimidin-6-yl)phenoxy)-N-isopropylacetamide]: the pIC50 is 7.00 to 8.00.

Regarding `Cn1ncc2c(Nc3ccc(-c4cn[nH]c4)cc3)nc(-c3cccc(OCC(=O)NC4CCCC4)c3)nc21` [Example 17, 2-(3-(4-((4-(1H-pyrazol-4-yl)phenyl)amino)-1-methyl-1H-pyrazolo[3,4-d]pyrimidin-6-yl)phenoxy)-N-cyclopentylacetamide], the pIC50 is 6.60 to 7.00.

On to `CC(C)CNC(=O)COc1cccc(-c2nc(Nc3ccc(-c4cn[nH]c4)cc3)c3cnn(C)c3n2)c1` [Example 18, 2-(3-(4-((4-(1H-pyrazol-4-yl)phenyl)amino)-1-methyl-1H-pyrazolo[3,4-d]pyrimidin-6-yl)phenoxy)-N-isobutylacetamide], for which the pIC50 was 7.00 to 8.00.

On to `CC(C)NC(=O)COc1cccc(-c2nc(Nc3ccc(-c4cn[nH]c4)cc3)c3ccncc3n2)c1` [Example 19, 2-(3-(4-((4-(1H-pyrazol-4-yl)phenyl)amino)pyrido[3,4-d]pyrimidin-2-yl)phenoxy)-N-isopropylacetamide], for which the pIC50 was 6.60 to 7.00.

`O=C(COc1cccc(-c2nc(Nc3ccc(-c4cn[nH]c4)cc3)c3ccncc3n2)c1)NC1CCC1` [Example 20, 2-(3-(4-((4-(1H-pyrazol-4-yl)phenyl)amino)pyrido[3,4-d]pyrimidin-2-yl)phenoxy)-N-cyclobutylacetamide] gave a pIC50 of 6.60 to 7.00.

Regarding `O=C(COc1cccc(-c2nc(Nc3ccc(-c4cn[nH]c4)cc3)c3ccncc3n2)c1)NC1CCCC1` [Example 21, 2-(3-(4-((4-(1H-pyrazol-4-yl)phenyl)amino)pyrido[3,4-d]pyrimidin-2-yl)phenoxy)-N-cyclopentylacetamide], the pIC50 was 6.60 to 7.00.

In turn, `CC(C)NC(=O)COc1cccc(-c2nc(Nc3ccc(-c4cn[nH]c4)cc3)c3ncsc3n2)c1` [Example 22, 2-(3-(7-((4-(1H-pyrazol-4-yl)phenyl)amino)thiazolo[5,4-d]pyrimidin-5-yl)phenoxy)-N-isopropylacetamide] had a negative logarithm of the IC50 (pIC50) of 6.30 to 6.60.

In turn, `O=C(COc1cccc(-c2nc(Nc3ccc(-c4cn[nH]c4)cc3)c3ncsc3n2)c1)NC1CCC1` [Example 23, 2-(3-(7-((4-(1H-pyrazol-4-yl)phenyl)amino)thiazolo[5,4-d]pyrimidin-5-yl)phenoxy)-N-cyclobutylacetamide] showed a pIC50 of 6.30 to 6.60.

Take `O=C(COc1cccc(-c2nc(Nc3ccc(-c4cn[nH]c4)cc3)c3ncsc3n2)c1)NC1CCCC1` [Example 24, 2-(3-(7-((4-(1H-pyrazol-4-yl)phenyl)amino)thiazolo[5,4-d]pyrimidin-5-yl)phenoxy)-N-cyclopentylacetamide]: the pIC50 is 6.30 to 6.60.

In the case of `CC(C)CNC(=O)COc1cccc(-c2nc(Nc3ccc(-c4cn[nH]c4)cc3)c3ncsc3n2)c1` [Example 25, 2-(3-(7-((4-(1H-pyrazol-4-yl)phenyl)amino)thiazolo[5,4-d]pyrimidin-5-yl)phenoxy)-N-isobutylacetamide], the pIC50 is 6.30 to 6.60.

Regarding `CC(C)(C)NC(=O)COc1cccc(-c2nc3c(c(Nc4ccc(-c5cn[nH]c5)cc4)n2)COC3)c1` [Example 26, 2-(3-(4-((4-(1H-pyrazol-4-yl)phenyl)amino)-5,7-dihydrofuro[3,4-d]pyrimidin-2-yl)phenoxy)-N-(tert-butyl)acetamide dihydrochloride], the pIC50 was 6.60 to 7.00.

Take `CCC(CC)NC(=O)COc1cccc(-c2nc3c(c(Nc4ccc(-c5cn[nH]c5)cc4)n2)COC3)c1` [Example 27, 2-(3-(4-((4-(1H-pyrazol-4-yl)phenyl)amino)-5,7-dihydrofuro[3,4-d]pyrimidin-2-yl)phenoxy)-N-(pentan-3-yl)acetamide dihydrochloride]: the pIC50 was 7.00 to 8.00.

Compound `CCC(C)NC(=O)COc1cccc(-c2nc3c(c(Nc4ccc(-c5cn[nH]c5)cc4)n2)COC3)c1` (stereo not shown) [Example 28, 2-(3-(4-((4-(1H-pyrazol-4-yl)phenyl)amino)-5,7-dihydrofuro[3,4-d]pyrimidin-2-yl)phenoxy)-N-(sec-butyl)acetamide] had a pIC50 of 7.00 to 8.00.

`CC(C)CNC(=O)COc1cccc(-c2nc3c(c(Nc4ccc(-c5cn[nH]c5)cc4)n2)COC3)c1` [Example 29, 2-(3-(4-((4-(1H-pyrazol-4-yl)phenyl)amino)-5,7-dihydrofuro[3,4-d]pyrimidin-2-yl)phenoxy)-N-isobutylacetamide] gave a pIC50 of 6.60 to 7.00.

Turning to `CC(C)(C)CNC(=O)COc1cccc(-c2nc3c(c(Nc4ccc(-c5cn[nH]c5)cc4)n2)COC3)c1` [Example 30, 2-(3-(4-((4-(1H-pyrazol-4-yl)phenyl)amino)-5,7-dihydrofuro[3,4-d]pyrimidin-2-yl)phenoxy)-N-neopentylacetamide], the pIC50 is 6.60 to 7.00.

For the compound `O=C(COc1cccc(-c2nc3c(c(Nc4ccc(-c5cn[nH]c5)cc4)n2)COC3)c1)NC1CC(F)(F)C1` [Example 32, 2-(3-(4-((4-(1H-pyrazol-4-yl)phenyl)amino)-5,7-dihydrofuro[3,4-d]pyrimidin-2-yl)phenoxy)-N-(3,3-difluorocyclobutyl)acetamide], the pIC50 is 6.30 to 6.60.

The record behind these values is patent US10729691B2, “Treatment of infectious diseases with glucose uptake inhibitors” (Kadmon Corporation LLC, priority 2015, dated 2020).
